Measurements as given in PubChem BioAssay (NCI).
Several values for one entry are separate records, joined by “and”; a condition that tells them apart may be missing. Equal entries are not always repeated.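 Assay format: 96-well plates, 48-hour exposure. Here, GI50 denotes the concentration required for 50% inhibition of growth. TGI marks complete inhibition of growth.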

Each molecule was assayed on HCT-116 colon (assay: growth of human tumour cells (NCI), 48 h).
In the case of `Cc1nc2sccn2c1-c1nc2sccn2c1/C=C1/C(=O)Nc2ccccc21`, the GI50 is reported as 3.3 µM and the TGI is reported as 30 µM.
`Cc1cccc(NC2=C(Cl)C(=O)c3nc(C)ccc3C2=O)c1` showed a GI50 of 0.44 µM and a TGI of 1.86 µM.
`COc1cc2c(cc1OCCCN1CCN(CCCOc3cc4c(cc3OC)C(=O)N3CC(F)(F)C[C@H]3C=N4)CC1)N=C[C@@H]1CC(F)(F)CN1C2=O` showed a GI50 of 3.59 µM and a TGI of 22.4 µM.
`CCCCCCCCSC1=C(Cl)C(=O)C(OC)=C(OC)C1=O` gave a TGI of 19.8 µM.
`COC(=O)C1=CN(CC2=CC(=O)C(C)=CC2=O)C=C(C(=O)OC)C1c1ccccc1OC` was tested, and the GI50 was 22.8 µM and the TGI was 66 µM.
`COc1cccc2c1O/C(=C\c1ccc([N+](=O)[O-])s1)C2=O` showed a GI50 of 2.04 µM and a TGI of over 100 µM.
Work on `COC(=O)/C=C/c1cc(OC(C)=O)c2c(c1)C(C(=O)OC)C(c1ccc(OC(C)=O)c(OC(C)=O)c1)O2` (stereo unspecified) yielded a GI50 of 0.0499 µM and a TGI of over 51.4 µM.
For `C=C(C)C(C1C=C(CCC(C=O)=C(C)C)C(=O)O1)C1(OC)C=C(C)C(=O)O1` (stereo unspecified), the GI50 was 49.5 µM and the TGI was over 100 µM.
`CCOC(=O)Nc1c(C)nc2ccccn12` showed a GI50 of over 100 µM and a TGI of over 100 µM.
In the case of `CC(C)=CCC1=C(O)c2ccccc2C(=O)C1=O`, the TGI is reported as over 100 µM.
Work on `O=[N+]([O-])c1ccccc1N=Nc1c(O)[nH]c2c(Cl)cc(Cl)cc12` yielded a TGI of over 100 µM.
For `NC(=S)N/N=C/c1ncccc1O`, the GI50 was 2.86 µM and the TGI was over 391 µM.
With `C=C(CN(C)Cc1ccccc1)c1ccc(NC(=O)c2ccc(C(=C)CN(C)Cc3ccccc3)cc2)cc1` the GI50 was 31.7 µM and the TGI was over 100 µM.
For `O=C(CC(=O)Nc1ccccc1)NNC(Sc1ccccc1)c1cc(N=Nc2ccc(Br)cc2)ccc1O` (stereo unspecified), the TGI was 2.81 µM.
Molecule `Cc1cc(C(=O)CSC(=S)SC(C)(C)C)ccc1Cl` has a TGI of 42.3 µM.
With `C=CC12CCN(CC1)C(C(O)c1ccnc3ccc(OC)cc13)C2` (stereo unspecified) the GI50 was over 100 µM and the TGI was over 100 µM.
`O=C(Nc1nc(-c2c[nH]c3ccccc23)cs1)c1n[nH]c(=O)c2ccccc12` showed a GI50 of 0.368 µM and a TGI of over 44.5 µM.
In the case of `CN(C)CCN1CCC(Cc2ccccc2)CC1`, the GI50 is reported as over 80 µM and the TGI is reported as over 80 µM.
`COc1cc2c3c(n(C)c(=O)c2cc1OC)-c1cc2c(cc1C3=O)OCO2` was tested, and the TGI was over 100 µM.
`COc1ccc(/C=C\c2cc(OC)c(OC)c(OC)c2)cc1OCC(=O)O` was tested, and the TGI was 31.5 µM.
Work on `O=C(CNc1ccc(Cl)cc1Cl)Nn1c(-c2ccccc2)nc2ccccc2c1=O` yielded a TGI of 31.3 µM.
`O=C(Nc1ncc(Cc2cccc(C(F)(F)F)c2)s1)c1ccc2c(c1)OCCO2` was tested, and the GI50 was 0.32 µM and the TGI was over 100 µM.
Molecule `NC(=O)c1cc(I)ccc1NC(=O)/C=C/c1ccccc1` has a GI50 of 0.475 µM and a TGI of over 40.3 µM.
In the case of `COc1ccc(CNc2c3ccccc3nc3ccccc23)cc1F`, the GI50 is reported as 2.92 µM and the TGI is reported as 12.3 µM.
With `CCn1cc(-c2ccnc3[nH]c(-c4cccc(CN(C)C)c4)cc23)c(-c2ccc(NC(=O)N(C)C)cc2)n1` the GI50 was 0.322 µM and 0.455 µM and the TGI was 17.7 µM and > 10 µM.
`CCN(Cc1c(F)cccc1OC)c1ccc(CO)c(Cl)c1` was tested, and the GI50 was 0.0546 µM and the TGI was over 37.2 µM.
For `CCOC(=O)c1c(C)c2c(n1Cc1ccccc1)CSCC2=O`, the GI50 was 11.8 µM and the TGI was 31.9 µM.

What follows are molecules tested on A549 NSCLC (assay: growth of human tumour cells (NCI), 48 h).
Work on `Cc1nc2sccn2c1-c1nc2sccn2c1/C=C1/C(=O)Nc2ccccc21` yielded a GI50 of 3.95 µM and a TGI of over 100 µM.
Molecule `Cc1cccc(NC2=C(Cl)C(=O)c3nc(C)ccc3C2=O)c1` has a GI50 of 2.18 µM and a TGI of 6.11 µM.
`COc1cc2c(cc1OCCCN1CCN(CCCOc3cc4c(cc3OC)C(=O)N3CC(F)(F)C[C@H]3C=N4)CC1)N=C[C@@H]1CC(F)(F)CN1C2=O` gave a GI50 of 7.32 µM and a TGI of 43 µM.
Work on `CCCCCCCCSC1=C(Cl)C(=O)C(OC)=C(OC)C1=O` yielded a TGI of 48.4 µM.
`COC(=O)C1=CN(CC2=CC(=O)C(C)=CC2=O)C=C(C(=O)OC)C1c1ccccc1OC` gave a GI50 of 29.3 µM and a TGI of over 59.4 µM.
With `COc1cccc2c1O/C(=C\c1ccc([N+](=O)[O-])s1)C2=O` the GI50 was 3.29 µM and the TGI was over 100 µM.
`COC(=O)/C=C/c1cc(OC(C)=O)c2c(c1)C(C(=O)OC)C(c1ccc(OC(C)=O)c(OC(C)=O)c1)O2` (stereo unspecified) was tested, and the GI50 was 1.35 µM and the TGI was over 56.7 µM.
Molecule `C=C(C)C(C1C=C(CCC(C=O)=C(C)C)C(=O)O1)C1(OC)C=C(C)C(=O)O1` (stereo unspecified) has a GI50 of over 100 µM and a TGI of over 100 µM.
For `CCOC(=O)Nc1c(C)nc2ccccn12`, the GI50 was over 100 µM and the TGI was over 100 µM.
For `CC(C)=CCC1=C(O)c2ccccc2C(=O)C1=O`, the GI50 was > 100 µM and 17.3 µM and 16.6 µM and the TGI was over 100 µM.
Molecule `O=[N+]([O-])c1ccccc1N=Nc1c(O)[nH]c2c(Cl)cc(Cl)cc12` has a TGI of over 100 µM.
In the case of `NC(=S)N/N=C/c1ncccc1O`, the GI50 is reported as 3.39 µM and the TGI is reported as > 59.4 µM and 31.3 µM.
For `C=C(CN(C)Cc1ccccc1)c1ccc(NC(=O)c2ccc(C(=C)CN(C)Cc3ccccc3)cc2)cc1`, the GI50 was 77.8 µM and the TGI was over 100 µM.
For `O=C(CC(=O)Nc1ccccc1)NNC(Sc1ccccc1)c1cc(N=Nc2ccc(Br)cc2)ccc1O` (stereo unspecified), the TGI was over 10 µM.
`Cc1cc(C(=O)CSC(=S)SC(C)(C)C)ccc1Cl` gave a TGI of 50 µM.
In the case of `C=CC12CCN(CC1)C(C(O)c1ccnc3ccc(OC)cc13)C2` (stereo unspecified), the GI50 is reported as over 100 µM and the TGI is reported as over 100 µM.
`O=C(Nc1nc(-c2c[nH]c3ccccc23)cs1)c1n[nH]c(=O)c2ccccc12` was tested, and the GI50 was 1.57 µM and the TGI was 83.6 µM.
`CN(C)CCN1CCC(Cc2ccccc2)CC1` was tested, and the GI50 was over 80 µM and the TGI was over 80 µM.
Molecule `COc1cc2c3c(n(C)c(=O)c2cc1OC)-c1cc2c(cc1C3=O)OCO2` has a TGI of over 100 µM.
With `COc1ccc(/C=C\c2cc(OC)c(OC)c(OC)c2)cc1OCC(=O)O` the TGI was over 100 µM.
`O=C(CNc1ccc(Cl)cc1Cl)Nn1c(-c2ccccc2)nc2ccccc2c1=O` gave a TGI of over 100 µM.
`O=C(Nc1ncc(Cc2cccc(C(F)(F)F)c2)s1)c1ccc2c(c1)OCCO2` was tested, and the GI50 was 0.451 µM and the TGI was over 100 µM.
`NC(=O)c1cc(I)ccc1NC(=O)/C=C/c1ccccc1` was tested, and the GI50 was 1.33 µM and the TGI was over 100 µM.
For `COc1ccc(CNc2c3ccccc3nc3ccccc23)cc1F`, the GI50 was 3.55 µM and the TGI was 18 µM.
For `CCn1cc(-c2ccnc3[nH]c(-c4cccc(CN(C)C)c4)cc23)c(-c2ccc(NC(=O)N(C)C)cc2)n1`, the GI50 was 0.238 µM and 0.747 µM and the TGI was 16.1 µM and > 10 µM.
Work on `CCN(Cc1c(F)cccc1OC)c1ccc(CO)c(Cl)c1` yielded a GI50 of 2.35 µM and a TGI of 23.1 µM.
For `CCOC(=O)c1c(C)c2c(n1Cc1ccccc1)CSCC2=O`, the GI50 was 30.6 µM and the TGI was over 100 µM.

Each molecule was assayed on HCC-2998 colon (assay: growth of human tumour cells (NCI), 48 h).
`Cc1nc2sccn2c1-c1nc2sccn2c1/C=C1/C(=O)Nc2ccccc21` showed a GI50 of 8.3 µM and a TGI of 29.8 µM.
`Cc1cccc(NC2=C(Cl)C(=O)c3nc(C)ccc3C2=O)c1` was tested, and the GI50 was 1.69 µM and the TGI was 3.22 µM.
`COc1cc2c(cc1OCCCN1CCN(CCCOc3cc4c(cc3OC)C(=O)N3CC(F)(F)C[C@H]3C=N4)CC1)N=C[C@@H]1CC(F)(F)CN1C2=O` gave a GI50 of 5.4 µM and a TGI of 19.4 µM.
Work on `CCCCCCCCSC1=C(Cl)C(=O)C(OC)=C(OC)C1=O` yielded a TGI of 32.4 µM.
`COC(=O)C1=CN(CC2=CC(=O)C(C)=CC2=O)C=C(C(=O)OC)C1c1ccccc1OC` was tested, and the GI50 was 15.5 µM and the TGI was 28.9 µM.
For `COc1cccc2c1O/C(=C\c1ccc([N+](=O)[O-])s1)C2=O`, the GI50 was 4 µM and the TGI was over 100 µM.
`COC(=O)/C=C/c1cc(OC(C)=O)c2c(c1)C(C(=O)OC)C(c1ccc(OC(C)=O)c(OC(C)=O)c1)O2` (stereo unspecified) showed a GI50 of 0.461 µM and a TGI of 48.4 µM.
`C=C(C)C(C1C=C(CCC(C=O)=C(C)C)C(=O)O1)C1(OC)C=C(C)C(=O)O1` (stereo unspecified) gave a GI50 of over 100 µM and a TGI of over 100 µM.
In the case of `CCOC(=O)Nc1c(C)nc2ccccn12`, the GI50 is reported as over 100 µM and the TGI is reported as over 100 µM.
Molecule `CC(C)=CCC1=C(O)c2ccccc2C(=O)C1=O` has a TGI of over 100 µM.
For `O=[N+]([O-])c1ccccc1N=Nc1c(O)[nH]c2c(Cl)cc(Cl)cc12`, the TGI was over 100 µM.
In the case of `NC(=S)N/N=C/c1ncccc1O`, the GI50 is reported as 3.08 µM and the TGI is reported as > 42.3 µM and 166 µM.
`C=C(CN(C)Cc1ccccc1)c1ccc(NC(=O)c2ccc(C(=C)CN(C)Cc3ccccc3)cc2)cc1` gave a GI50 of 37.2 µM and a TGI of over 100 µM.
